System: SK-MEL-2 multi-cell spheroids, viability
Test: Anticancer human tumor SK-MEL-2 cell line growth inhibition [TAK];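 note: spheroids exposed to drugs for seven days before readout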;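 for viability, T/C: percent of DMSO vehicle control luminescence so 100% = untreated viability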
Conditions: for IC50: curve of first compound; for viability, T/C: stronger effect = lower value
In short: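 Drug combinations, each paired with TAK-243 or ipatasertib, were tested on multi-cell spheroids of 60% malignant cells, 25% HUVEC and 15% hMSC. Top concentrations were at or near the clinical Cmax (10 microM if undetermined), decreasing by half-log; viability is given as % test/control.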

[1] = second compound 0.3 µM, first compound 0.0316 µM
[2] = second compound 0.3 µM, first compound 0.1 µM
[3] = second compound 0.3 µM, first compound 0.316 µM
[4] = second compound 0.3 µM, first compound 1 µM
[5] = second compound 0.949 µM, first compound 0.0316 µM
[6] = second compound 0.949 µM, first compound 0.1 µM
[7] = second compound 0.949 µM, first compound 0.316 µM
[8] = second compound 0.949 µM, first compound 1 µM
[9] = second compound 3 µM, first compound 0.0316 µM
[10] = second compound 3 µM, first compound 0.1 µM
[11] = second compound 3 µM, first compound 0.316 µM
[12] = second compound 3 µM, first compound 1 µM
[13] = second compound 9.49 µM, first compound 0.0316 µM
[14] = second compound 9.49 µM, first compound 0.1 µM
[15] = second compound 9.49 µM, first compound 0.316 µM
[16] = second compound 9.49 µM, first compound 1 µM
[17] = second compound 30 µM, first compound 0.0316 µM
[18] = second compound 30 µM, first compound 0.1 µM
[19] = second compound 30 µM, first compound 0.316 µM
[20] = second compound 30 µM, first compound 1 µM

COc1c(OCCCN2CCOCC2)ccc2c3n(c(=NC(=O)c4cnc(N)nc4)nc12)CCN3 + CC(C)NCC(C(=O)N1CCN(c2ncnc3c2C(C)CC3O)CC1)c1ccc(Cl)cc1
IC50 (second compound 0.3 µM): 0.0513 µM
IC50 (second compound 0.949 µM): 0.0294 µM
IC50 (second compound 3 µM): 0.0208 µM
IC50 (second compound 9.49 µM): 0.0145 µM
IC50 (second compound 30 µM): 0.00989 µM
viability, T/C (second compound 0.3 µM, first compound 0.00316 µM): 92%
viability, T/C (second compound 0.3 µM, first compound 0.01 µM): 72.5%
viability, T/C [1]: 50.6%
viability, T/C [2]: 45.6%
viability, T/C [3]: 30.9%
viability, T/C [4]: 19.5%
viability, T/C (second compound 0.949 µM, first compound 0.00316 µM): 81%
viability, T/C (second compound 0.949 µM, first compound 0.01 µM): 65%
viability, T/C [5]: 47.1%
viability, T/C [6]: 38.4%
viability, T/C [7]: 27.6%
viability, T/C [8]: 21%
viability, T/C (second compound 3 µM, first compound 0.00316 µM): 68.5%
viability, T/C (second compound 3 µM, first compound 0.01 µM): 62.9%
viability, T/C [9]: 40.2%
viability, T/C [10]: 34.2%
viability, T/C [11]: 26.1%
viability, T/C [12]: 19.5%
viability, T/C (second compound 9.49 µM, first compound 0.00316 µM): 59.8%
viability, T/C (second compound 9.49 µM, first compound 0.01 µM): 57.6%
viability, T/C [13]: 37%
viability, T/C [14]: 31.4%
viability, T/C [15]: 24.6%
viability, T/C [16]: 21.1%
viability, T/C (second compound 30 µM, first compound 0.00316 µM): 52.5%
viability, T/C (second compound 30 µM, first compound 0.01 µM): 50.8%
viability, T/C [17]: 41.6%
viability, T/C [18]: 28.8%
viability, T/C [19]: 21.1%
viability, T/C [20]: 16.3%

Cc1nc(NC(=O)N2CCCC2C(N)=O)sc1-c1ccnc(C(C)(C)C(F)(F)F)c1 (stereo not given) + CC(C)NCC(C(=O)N1CCN(c2ncnc3c2C(C)CC3O)CC1)c1ccc(Cl)cc1
IC50 (second compound 0.3 µM): > 10 µM
IC50 (second compound 0.949 µM): > 10 µM
IC50 (second compound 3 µM): > 10 µM
IC50 (second compound 9.49 µM): > 10 µM
IC50 (second compound 30 µM): 0.218 µM
viability, T/C [1]: 97%
viability, T/C [2]: 84.7%
viability, T/C [3]: 70.5%
viability, T/C [4]: 79.8%
viability, T/C (second compound 0.3 µM, first compound 3.16 µM): 75.3%
viability, T/C (second compound 0.3 µM, first compound 10 µM): 55.6%
viability, T/C [5]: 85%
viability, T/C [6]: 74.7%
viability, T/C [7]: 64.8%
viability, T/C [8]: 65.8%
viability, T/C (second compound 0.949 µM, first compound 3.16 µM): 59.5%
viability, T/C (second compound 0.949 µM, first compound 10 µM): 49.4%
viability, T/C [9]: 66.1%
viability, T/C [10]: 67.3%
viability, T/C [11]: 52.8%
viability, T/C [12]: 58.8%
viability, T/C (second compound 3 µM, first compound 3.16 µM): 57.3%
viability, T/C (second compound 3 µM, first compound 10 µM): 51.2%
viability, T/C [13]: 56%
viability, T/C [14]: 56.4%
viability, T/C [15]: 48.7%
viability, T/C [16]: 51.1%
viability, T/C (second compound 9.49 µM, first compound 3.16 µM): 55.9%
viability, T/C (second compound 9.49 µM, first compound 10 µM): 49.2%
viability, T/C [17]: 52.4%
viability, T/C [18]: 55.8%
viability, T/C [19]: 46.2%
viability, T/C [20]: 43.7%
viability, T/C (second compound 30 µM, first compound 3.16 µM): 50.3%
viability, T/C (second compound 30 µM, first compound 10 µM): 40%

— PubChem BioAssay AID2060344 (Molecular Pharmacology Branch, DTP, NCI, 2025)
